The text below walks through data of patent US6218430A, “Vitamin D3 mimics” (Ligand Pharmaceuticals Incorporated, priority 1998, dated 2001).

One data set addresses serum DBP. The experiment in a line: Serum DBP binding, rat or human serum, species not given. The settings on record: rat (r) or human (h) serum DBP, not marked (r)/(h); competition with [3H]-25(OH)D3. As to the method: Serum DBP-binding. DPB competition binding assays were performed by a literature method (Dusso et al. 1991). The source of DBP was either human serum (Scantibodies) or rat serum (Gibco-BRL) diluted 1:10,000 in sodium phosphate buffer (pH 7.4). Sera were incubated for 2 h at 4° C. with 2 nM [^3 H]-25(OH)D3 (Amersham) with and withoun unlabeled 25(OH)D3 or 1,25(OH)2D3 (0.01 nM-1 μM), or unlabeled vitamin D mimic compounds (10 nM-10 μM). Bound ligand was separated from unbound ligand with Dextran-coated charcoal in gelatin-phosphate buffer.

Data set [1] has as its target T1, human VDR (Homo sapiens, UniProt P11473).
T1 sequence (P11473 1-427): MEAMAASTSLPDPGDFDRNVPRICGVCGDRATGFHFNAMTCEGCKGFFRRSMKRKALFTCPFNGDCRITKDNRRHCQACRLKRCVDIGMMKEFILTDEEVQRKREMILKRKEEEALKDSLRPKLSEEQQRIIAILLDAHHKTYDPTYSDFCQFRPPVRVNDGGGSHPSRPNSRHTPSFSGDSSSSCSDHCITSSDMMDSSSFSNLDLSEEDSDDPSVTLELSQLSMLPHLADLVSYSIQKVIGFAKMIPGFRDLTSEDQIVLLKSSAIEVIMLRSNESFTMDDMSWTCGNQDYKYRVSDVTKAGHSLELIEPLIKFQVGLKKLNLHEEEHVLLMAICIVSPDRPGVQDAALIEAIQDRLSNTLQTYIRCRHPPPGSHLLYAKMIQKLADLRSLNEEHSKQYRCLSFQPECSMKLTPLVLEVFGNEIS
Description: biochemical.
Description: VDR binding. […] Cell extracts from yeast transformants were prepared and full length VDR expression was confirmed by Western blotting. […] Binding buffer contained 10 mM Tris,pH 7.5, 1 mM DTT, and 0.4 M KCl; wash buffer contained 10 mM Tris, 100 mM KCl, and 10 mM CHAPS detergent.

In data set [2] the test system is SK-BR-3 breast cancer cells. Description: Breast cancer cell growth inhibition (BrdU). The format is cell-based. The settings on record: Homo sapiens, SK-BR-3, 72 h, BrdU incorporation, 3-day assay. As to the method: (§1) Cancer cell growth inhibition and analysis. SK-BR-3 human breast cancer cells (ATCC) and LNCaP human prostate cancer cells (ATCC) were plated in 96-well, flat-bottomed microtiter plates (CoStar) with 50 μL serum-containing media/well. […] Cell plating numbers (cells/well) were as follows: SK-BR-3, 3000 (3-day assays); LNCAP, 1000 (4-day assays). Cell plating number was determined by growth rate of each cell line and duration of the assay. […] Cells were allowed to adhere for 24 h prior to compound addition as follows:
(§2) Ten-fold serial dilutions were performed with changing of pipette tips between each dilution. Diluted compounds were then added to the cells (50 μL/well) to final concentrations of 1×10^-5 -1×10^-11 M (1% ethanol) in triplicate. […] BrdU (5-bromo-2'-deoxyuridine) incorporation was analyzed as a measure of DNA replication (Cell Proliferation ELISA kit, Boehringer) and absorbance was measured at 450 nm.
(§3) One row of wells contained media only and these absorbance values were averaged as background and then subtracted from absorbance values from each individual well containing cells. The average values were then determined for each triplicate and plotted vs ligand concentration. The average vehicle (1% ethanol) value was determined, less the background average. […] Potency (EC50) was determined as the concentration of compound that elicited half-maximal response.
For orientation: Incorporation of labelled thymidine or its analogues reports DNA synthesis.

For the next data set, the system named is HL60 cells. The experiment in a line: Leukemic cell differentiation (NBT and CD14). It is filed as cell-based. The settings on record: Homo sapiens, HL-60, 120 h; NBT and CD14 assays; differentiation into macrophages/monocytes; 5 days. As to the method: Leukemic cell differentiation. […] Ligands were added in ethanol vehicle (1%) at various concentrations for 5 days without changing the media. On the fifth day, cells were harvested and assayed for markers of differentiation. […] Cells that bioreduce the dye turn blue-black and represent differentiated cells, and are counted. Undifferentiated cells are clear and are also counted; percent differentiated cells are then determined from the two numbers.

The target in data set [3] is T1, human VDR. The experiment in a line: Cotransactivation (CTF) in Hep G2 cells, VDRE-luciferase reporter. It is filed as cell-based. Further details: expressed in transfected cells; host or cells: Hep G2 (human hepatoma, ATCC). Here is the method: Cotransactivation properties. […] Reporter and receptor containing vectors were transfected along with carrier DNA and β-galactosidase internal control plasmid as previously described except that Hep G2 cells were used (Id). Briefly, transfections were performed in triplicate in 96-well gelatin-coated plates with a total of 20 μg/mL DNA (0.5 μg receptor expression vector, 5 μg reported plasmid, 5 μg β-galactosidase plasmid, and pGEM carrier DNA to 20 μg) of calcium phosphate-HEPES transfection solution. […] Luciferase values were normalized with β-galactosidase values to control for variable transfection efficiencies.
A general note: Reporter assays use an easily measured gene product as a stand-in for the process of interest.

Data set [4] has as its system LNCaP prostate cancer cells. Description: Prostate cancer cell growth inhibition (BrdU). The format is cell-based. The settings on record: Homo sapiens, 96 h, BrdU incorporation, 4-day assay. Here is the method:
as §1, §2, §3

The subject of data set [5] is Normal human epidermal keratinocytes (NHEK). The experiment in a line: Keratinocyte growth inhibition (BrdU). It is filed as cell-based. Conditions: 96 h, BrdU incorporation, day 4. As to the method:
as §2, §3
Keratinocyte growth inhibition. Normal human epidermal keratinocytes (NHEK) were grown according to vendor specifications (Clonetics, San Diego). BrdU assays were performed as above except that cells were plated at 200 cells per well (96-well plates) and fresh media with ligands were added on day 0 and day 2; BrdU assays were run on day 4.

Data set [6] can be described thus: In vivo calcium potential: serum calcium (colorimetric). Also noted: species or system mouse (Balb/c mice). The settings on record: oral gavage. As to the method: (§4) In vivo gene regulation and calcium potential. Balb/c mice (male 6-8 weeks old, ~20 g) were fed a vitamin D deficient, calcium replete diet (Purina Mills) for 7-14 days prior to receiving treatment with compounds. Animals were housed under normal lighting. Compounds were administered in sesame oil vehicle with 4% ethanol by oral gavage (0.1 mL dose volume). […] On the final day of dosing, 4-6 h after the final dose, animals were euthanized, the kidneys removed and blood collected. Serum was prepared from the blood and calcium determination performed by colorimetric assay (Sigma). […] 15-20 μg total RNA was utilized in Northern blot analysis using rat 24(OH)ase probe; GAPDH probe was used to normalize for RNA loading, as described previously (Id). Quantitation was by PhosphorImager analysis.

Another data set relates to 24(OH)ase. The experiment in a line: In vivo gene regulation: kidney 24(OH)ase RNA induction (Northern blot). Also noted: species or system mouse (Balb/c mice). The settings on record: 3-day treatment; for Relative 24(OH)ase activity: oral gavage, vehicle 1, corrected with GAPDH. As to the method:
as §4

[7] abbreviates: cotransfected VDRE-luciferase reporter and human VDR in Hep G2 cells, read-out: CTF EC50.

pEC50, pIC50, pKi: −log10 of the molar value. Where two headings read alike, the source gives them in different places. Where only a bound is given, the exact number is not on record here.

Consider `CCC(CC)(c1ccc(OCC(=O)C(C)(C)C)c(C)c1)c1ccc(OCC(O)C(C)(C)C)c(C)c1` (stereo not shown) [Compound 11, 3-[3-methyl-4-(2-hydroxy-3,3-dimethylbutoxy)phenyl]-3-[3-methyl-4-(3,3-dimethyl-2-oxobutoxy)phenyl]pentane], for which, on serum DBP, the pIC50 (usually the negative decadic logarithm of the IC50, by convention in mol/L) is less than 5.00. Besides, on human VDR [1], the pKi (commonly −log10 of the Ki, conventionally taken in molar units) was less than 5.00. The pEC50 (in general, the negative decadic logarithm of the EC50, by convention in mol/L) is 6.30 in data set [2], 6.40 with HL60 cells, 6.40 at human VDR [3] and 6.30 in data set [4].

On to `CCC(CC)(c1ccc(OCC(=O)C(C)(C)C)c(C)c1)c1ccc(OCC2CO2)c(C)c1` (stereo not shown) [Compound 9, 3-[3-methyl-4-(2,3-epoxypropoxy)phenyl]-3-[3-methyl-4-(3,3-dimethyl-2-oxobutoxy)phenyl]pentane], for which the pEC50 was 6.70 in data set [5]; 6.82 in data set [2]; 6.82 in the data set on HL60 cells; 7.22 at human VDR [3] (setting [7]); 7.00 in data set [4]. The pIC50 on serum DBP is less than 5.00. Also, the negative-log Ki (pKi) at human VDR [1] was less than 5.00.

Take `C=C1/C(=C\C=C2/CCC[C@]3(C)[C@@H]([C@H](C)CCCC(C)(C)O)CC[C@@H]23)C[C@@H](O)C[C@@H]1O` [1,25(OH)2 D3, 1,25-dihydroxyvitamin D3, reference compound]: the pEC50 in data set [5] was 7.52 to 8.00; in [2], 8.00 to 8.10; in the data set on HL60 cells, 8.00 to 8.10; in [4], 8.70. Moreover, the “Serum Ca2+” value in data set [6] (3-day treatment, 15 μg/kg, statistically different than vehicle (p < 0.01)) is given as greater than 15 mg/dL; in data set [6] (5-day treatment, 2 μg/kg) it was 9.7 ± 0.6 mg/dL; in data set [6] (5-day treatment, 5 μg/kg, statistically different than vehicle (p < 0.01)), 10.5 ± 0.6 mg/dL.

Consider `CCC(CC)(c1ccc(OCC(O)CO)c(C)c1)c1ccc(OCC(O)C(C)(C)C)c(C)c1` (stereo not shown) [Compound 13, 3-[3-methyl-4-(2,3-dihydroxypropoxy)phenyl]-3-[3-methyl-4-(2-hydroxy-3,3-dimethylbutoxy)phenyl]pentane], for which the pEC50 was 7.30 to 7.52 in data set [5], 7.30 to 7.52 in data set [2], 7.30 to 7.52 with HL60 cells and 7.70 in data set [4]. At serum DBP, this molecule had a pIC50 of less than 5.00.

As for `CCC(CC)(c1ccc(OCC(=O)C(C)(C)C)c(C)c1)c1ccc(OCC(=O)C(C)(C)C)c(C)c1` [Compound 7, 3,3-bis[3-methyl-4-(3,3-dimethyl-2-oxobutoxy)phenyl]pentane], the pEC50 in [5] is 6.30; in data set [2], 6.10; in the data set with HL60 cells it was 6.10; at human VDR [3] (setting [7]) it was 6.22; in data set [4], 6.52. This molecule showed a pIC50 on serum DBP of less than 5.00. The molecule also gave a pKi at human VDR [1] of less than 5.00. Also, the “Ratio 24(OH)ase/Ca2+” value turned out to be 0.63 in the data set with 24(OH)ase (100 μg/kg) and 0.52 in the data set with 24(OH)ase (500 μg/kg). For the same molecule, the “Ratio 24(OH)ase/Ca2+ increase” value in the data set with 24(OH)ase (100 μg/kg) is 5.17; in the data set on 24(OH)ase (500 μg/kg) it was 1.88. In addition, the “Relative 24(OH)ase activity” value in the data set with 24(OH)ase (100 μg/kg) and in the data set with 24(OH)ase (500 μg/kg) was 6.0 throughout. For the same molecule, the “Serum Ca2+” value in [6] (3-day treatment, 100 μg/kg) worked out at 9.6 ± 0.5 mg/dL; in [6] (3-day treatment, 500 μg/kg, statistically different than vehicle (p < 0.01)), 11.5 ± 0.9 mg/dL.
